Results taken from the supplement of paper PMC10307832.

Legend:
Assay in all cases: relative viability (nuclei count vs DMSO), 5 days (fraction); higher = more cells survive
[1] = compound: N#CC[C@H](C1CCCC1)n1cc(-c2ncnc3[nH]ccc23)cn1 [Ruxolitinib] + CC(=O)Nc1cccc(-n2c(=O)n(C3CC3)c(=O)c3c(Nc4ccc(I)cc4F)n(C)c(=O)c(C)c32)c1 [Trametinib] (partner 0.02 µM)
Outline: (§1)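 Values are medians from duplicate plates. Each reflects relative viability, defined as the nuclei count of treated wells over that of vehicle wells. Lung cancer cell lines in 1536-well plates were pin-tool dosed one day after seeding with one drug alone or with a fixed anchor-drug dose plus five library-drug doses (not always all listed) in √10 steps, then fixed, stained and imaged at 4× after 5 days.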

[2] = compound: N#CC[C@H](C1CCCC1)n1cc(-c2ncnc3[nH]ccc23)cn1 [Ruxolitinib] + CC(=O)c1c(C)c2cnc(Nc3ccc(N4CCNCC4)cn3)nc2n(C2CCCC2)c1=O [Palbociclib] (partner 0.5 µM)
Outline: as §1

[3] = compound: N#CC[C@H](C1CCCC1)n1cc(-c2ncnc3[nH]ccc23)cn1 [Ruxolitinib] + NC(=O)Nc1cc(-c2cccc(F)c2)sc1C(=O)N[C@H]1CCCNC1 [AZD7762] (partner 0.2 µM)
Outline: as §1

[4] = compound: CS(=O)(=O)c1ccc(-c2cnc(N)c(C(=O)Nc3ccccc3)n2)cc1 [VE-821] + CS(=O)(=O)N1CCN(Cc2cc3nc(-c4cccc5[nH]ncc45)nc(N4CCOCC4)c3s2)CC1 [Pictilisib] (partner 1 µM)
Outline: as §1

Cell Line | relative viability ([1]; first compound 0.08 µM) | relative viability ([1]; first compound 0.253 µM) | relative viability ([1]; first compound 0.8 µM) | relative viability ([1]; first compound 2.53 µM) | relative viability ([1]; first compound 8 µM) | relative viability ([2]; first compound 0.08 µM) | relative viability ([2]; first compound 0.253 µM) | relative viability ([2]; first compound 0.8 µM) | relative viability ([2]; first compound 2.53 µM) | relative viability ([2]; first compound 8 µM) | relative viability ([3]; first compound 0.08 µM) | relative viability ([3]; first compound 0.253 µM) | relative viability ([3]; first compound 0.8 µM) | relative viability ([3]; first compound 2.53 µM) | relative viability ([3]; first compound 8 µM) | relative viability ([4]; first compound 0.08 µM) | relative viability ([4]; first compound 0.253 µM) | relative viability ([4]; first compound 0.8 µM) | relative viability ([4]; first compound 2.53 µM) | relative viability ([4]; first compound 8 µM)
NCI-H1395 | 1.04 | 0.95 | 1.15 | 0.981 | 0.965 | 0.596 | 0.555 | 0.674 | 0.636 | 0.572 | 0.422 | 0.385 | 0.424 | 0.356 | 0.407 | 0.568 | 0.67 | 0.652 | 0.605 | 0.599
NCI-H1437 | 0.528 | 0.632 | 0.732 | 0.564 | 0.455 | 0.541 | 0.41 | 0.448 | 0.417 | 0.378 | 1.18 | 1.11 | 1.19 | 1.04 | 0.925 | 0.448 | 0.352 | 0.458 | 0.396 | 0.3
NCI-H1651 | 0.722 | 0.798 | 0.821 | 0.767 | 0.859 | 0.506 | 0.496 | 0.524 | 0.502 | 0.525 | 0.512 | 0.449 | 0.533 | 0.545 | 0.689 | 0.648 | 0.584 | 0.602 | 0.557 | 0.585
NCI-H1666 | 0.834 | 0.87 | 0.871 | 0.76 | 0.881 | 0.66 | 0.613 | 0.654 | 0.675 | 0.632 | 0.869 | 0.868 | 0.921 | 0.841 | 0.974 | 0.516 | 0.365 | 0.399 | 0.441 | 0.403
NCI-H1734 | 0.66 | 0.647 | 0.635 | 0.462 | 0.607 | 0.374 | 0.299 | 0.337 | 0.345 | 0.354 | 0.638 | 0.629 | 0.662 | 0.54 | 0.602 | 0.453 | 0.47 | 0.433 | 0.527 | 0.36
NCI-H1755 | 0.803 | 0.777 | 0.796 | 0.549 | 0.694 | 0.505 | 0.468 | 0.466 | 0.452 | 0.391 | 0.497 | 0.465 | 0.573 | 0.471 | 0.343 | 0.509 | 0.359 | 0.416 | 0.418 | 0.363
NCI-H1792 | 0.38 | 0.498 | 0.407 | 0.347 | 0.359 | 0.595 | 0.565 | 0.631 | 0.632 | 0.575 | 0.557 | 0.636 | 0.63 | 0.475 | 0.391 | 0.274 | 0.393 | 0.281 | 0.319 | 0.271
NCI-H1793 | 0.406 | 0.42 | 0.466 | 0.338 | 0.364 | 0.291 | 0.287 | 0.307 | 0.319 | 0.335 | 0.759 | 0.502 | 0.595 | 0.437 | 0.391 | 0.356 | 0.312 | 0.273 | 0.431 | 0.425
NCI-H1915 | 0.315 | 0.311 | 0.325 | 0.153 | 0.253 | 0.515 | 0.516 | 0.579 | 0.443 | 0.481 | 0.687 | 0.681 | 0.753 | 0.572 | 0.593 | 1.06 | 0.785 | 0.982 | 1.07 | 0.652
NCI-H1944 | 0.391 | 0.386 | 0.422 | 0.304 | 0.369 | 0.33 | 0.321 | 0.375 | 0.31 | 0.318 | 0.576 | 0.612 | 0.642 | 0.469 | 0.68 | 0.364 | 0.325 | 0.348 | 0.339 | 0.294
NCI-H1975 | 0.277 | 0.432 | 0.412 | 0.269 | 0.152 | 0.492 | 0.395 | 0.612 | 0.469 | 0.277 | 0.669 | 0.643 | 0.675 | 0.67 | 0.501 | 0.312 | 0.216 | 0.298 | 0.267 | 0.26
NCI-H1993 | 0.433 | 0.734 | 0.573 | 0.49 | 0.443 | 0.519 | 0.552 | 0.807 | 0.68 | 0.707 | 0.828 | 0.646 | 1.05 | 0.794 | 0.985 | 0.861 | 0.821 | 0.822 | 0.874 | 0.862
NCI-H2085 | 0.639 | 0.548 | 0.624 | 0.483 | 0.575 | 0.453 | 0.468 | 0.474 | 0.39 | 0.369 | 1.08 | 1.1 | 1.01 | 0.921 | 0.984 | 0.461 | 0.446 | 0.485 | 0.483 | 0.409
NCI-H2087 | 0.173 | – | 0.22 | 0.263 | 0.27 | 0.26 | – | 0.271 | 0.18 | 0.239 | 1.19 | – | 1.39 | 1.21 | 0.956 | 1.23 | 0.721 | 0.971 | 1.14 | 0.888
NCI-H2126 | 0.559 | 0.543 | 0.607 | 0.58 | 0.664 | 0.382 | 0.333 | 0.371 | 0.363 | 0.363 | 0.954 | 1.12 | 1.09 | 0.995 | 0.967 | 0.483 | 0.436 | 0.487 | 0.507 | 0.439
NCI-H2170 | 0.868 | 0.895 | 0.879 | 0.867 | 0.933 | 0.382 | 0.39 | 0.412 | 0.359 | 0.407 | 0.908 | 0.834 | 0.959 | 0.76 | 0.706 | 0.319 | 0.289 | 0.332 | 0.4 | 0.293
NCI-H2347 | 0.296 | 0.272 | 0.287 | 0.247 | 0.334 | 0.425 | 0.395 | 0.42 | 0.43 | 0.478 | 0.8 | 0.89 | 0.766 | 0.769 | 0.877 | 0.565 | 0.583 | 0.563 | 0.525 | 0.485
NCI-H2405 | 0.674 | 0.66 | 0.725 | 0.428 | 0.398 | 0.52 | 0.514 | 0.589 | 0.295 | 0.389 | 0.738 | 0.792 | 0.818 | 0.488 | 0.416 | 0.468 | 0.388 | 0.431 | 0.446 | 0.355
NCI-H3122 | 0.232 | 0.192 | 0.21 | 0.167 | 0.227 | 0.182 | 0.228 | 0.208 | 0.166 | 0.191 | 0.98 | 1.07 | 1.05 | 0.943 | 0.891 | 0.666 | 0.672 | 0.563 | 0.765 | 0.78
PC-3 [JPC-3] | – | 0.711 | 0.79 | 0.654 | 0.64 | – | 0.596 | 0.579 | 0.566 | 0.553 | – | 0.82 | 0.866 | 0.946 | 0.814 | 0.784 | 0.797 | 0.851 | 0.938 | 0.763
PC-14 | – | 0.829 | 1.17 | 0.45 | 0.625 | – | 0.546 | 0.595 | 0.46 | 0.304 | – | 0.356 | 0.363 | 0.347 | 0.359 | 0.91 | 0.734 | 0.708 | 0.759 | 0.74
RERF-LC-KJ | 0.797 | 0.978 | 0.939 | 0.834 | 0.906 | 1.03 | 1.13 | 1.25 | 1.13 | 0.934 | 0.949 | – | 1 | 0.98 | 1.01 | 0.496 | 0.498 | 0.463 | 0.547 | 0.482
